Tests used:
Type in all cases: functional, cell-based
HL-60 = test: Cytotoxicity against human HL60 cells after 48 hrs by MTT assay; conditions: HL-60, 48 h
U-937 = test: Cytotoxicity against human U937 cells after 48 hrs by MTT assay; conditions: U-937, 48 h
[1] = Cytotoxicity against human HT29-AK cells after 48 hrs by MTT assay
COLO 205 = test: Cytotoxicity against human COLO205 cells after 48 hrs by MTT assay; conditions: COLO 205, 48 h
U2OS = test: Cytotoxicity against human U2OS cells after 48 hrs by MTT assay
MCF7 = test: Cytotoxicity against human MCF7 cells after 48 hrs by MTT assay; conditions: MCF7, 48 h
MDA-MB-231 = test: Cytotoxicity against human MDA-MB-231 cells after 48 hrs by MTT assay; conditions: MDA-MB-231, 48 h

Structure (SMILES)	IC50 (HL-60) [µM]	IC50 (U-937) [µM]	IC50 [1] [µM]	IC50 (COLO 205) [µM]	IC50 (U2OS) [µM]	IC50 (MCF7) [µM]	IC50 (MDA-MB-231) [µM]
Fc1cccc(-c2nc(Nc3ccccc3F)c3cc(F)ccc3n2)c1	> 50	> 50	> 50	> 50	> 50	> 50	> 50
Fc1cccc(-c2nc(Nc3ccccc3)c3ccccc3n2)c1	> 50	> 50	> 50	> 50	> 50	> 50	> 50
COc1ccc(Nc2nc(-c3cccc(F)c3)nc3ccc(F)cc23)cc1	38.6	41.1	42.3	46.8	32.3	48.4	47.3
Oc1ccccc1Nc1nc(-c2cccc(F)c2)nc2ccc(F)cc12	44.4	46.2	> 50	> 50	41.4	> 50	> 50
Cc1ccccc1Nc1nc(-c2cccc(F)c2)nc2ccc(F)cc12	> 50	> 50	> 50	> 50	> 50	> 50	> 50
c1ccc(Nc2nc(-c3ccccc3)nc3ccccc23)cc1	> 50	> 50	> 50	> 50	> 50	> 50	> 50
Cc1cccc(Nc2nc(-c3cccc(F)c3)nc3ccc(F)cc23)c1	> 50	> 50	> 50	> 50	> 50	> 50	> 50
Fc1ccc2nc(-c3ccccc3)nc(Nc3ccccc3)c2c1	> 50	> 50	> 50	> 50	> 50	> 50	> 50
Nc1cccc(Nc2nc(-c3cccc(F)c3)nc3ccc(F)cc23)c1	> 50	> 50	> 50	> 50	49.6	> 50	> 50
COc1ccccc1Nc1nc(-c2cccc(F)c2)nc2ccc(F)cc12	> 50	> 50	> 50	> 50	> 50	> 50	> 50
Fc1ccc(Nc2nc(-c3cccc(F)c3)nc3ccc(F)cc23)cc1	> 50	> 50	> 50	> 50	> 50	> 50	> 50
Fc1cccc(-c2nc(Nc3ccccc3)c3cc(F)ccc3n2)c1	48.3	45.5	48.3	49.7	47.6	49.7	47.8
Fc1cccc(-c2nc(Nc3ccccc3Br)c3cc(F)ccc3n2)c1	> 50	> 50	> 50	> 50	> 50	> 50	> 50
Fc1cccc(-c2nc(Nc3cccc(Br)c3)c3cc(F)ccc3n2)c1	> 50	> 50	> 50	> 50	> 50	> 50	> 50
Oc1ccc(Nc2nc(-c3cccc(F)c3)nc3ccc(F)cc23)cc1	> 50	> 50	> 50	> 50	> 50	> 50	> 50
Nc1ccc(Nc2nc(-c3cccc(F)c3)nc3ccc(F)cc23)cc1	> 50	> 50	> 50	> 50	44.1	> 50	> 50
Fc1cccc(-c2nc(Nc3ccccc3Cl)c3cc(F)ccc3n2)c1	> 50	> 50	> 50	> 50	> 50	> 50	> 50
Fc1cccc(-c2nc(Nc3ccc(Cl)cc3)c3cc(F)ccc3n2)c1	45.7	32.6	40.3	32.6	38.4	> 50	> 50
Cc1ccc(Nc2nc(-c3cccc(F)c3)nc3ccc(F)cc23)cc1	> 50	> 50	> 50	> 50	> 50	> 50	> 50
Fc1cccc(Nc2nc(-c3cccc(F)c3)nc3ccc(F)cc23)c1	43.1	42.3	> 50	> 50	49.6	48.7	47.6
Fc1cccc(-c2nc(Nc3ccc(Br)cc3)c3cc(F)ccc3n2)c1	> 50	> 50	> 50	> 50	> 50	> 50	> 50
Nc1ccccc1Nc1nc(-c2cccc(F)c2)nc2ccc(F)cc12	41.3	47.2	> 50	> 50	37.9	> 50	> 50
Oc1cccc(Nc2nc(-c3cccc(F)c3)nc3ccc(F)cc23)c1	> 50	> 50	> 50	> 50	33.3	> 50	> 50
Fc1cccc(-c2nc(Nc3cccc(Cl)c3)c3cc(F)ccc3n2)c1	> 50	> 50	> 50	> 50	> 50	> 50	> 50

Source: ChEMBL document CHEMBL1817546, “The synthesized novel fluorinated compound (LJJ-10) induces death receptor- and mitochondria-dependent apoptotic cell death in the human osteogenic sarcoma U-2 OS cells” (Eur J Med Chem, 2011)
